This note sets out measurements from patent publication US20240116985A1, “STAPLED PEPTIDES AND METHODS THEREOF” (priority 2020, published 2024).

The structures appear in SMILES notation. ≈ marks a conversion by molar mass, not a printed value. Read-outs that look alike come from different tables or passages of the source.

Series [1] is described as follows: Solubility in PBS. Type of series: physicochemical. Put shortly: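 Read-out is the HPLC peak area of the supernatant from ultracentrifuged PBS solution, scaled against a 50 μM peptide DMSO injection; value reported as [(PBS area)/(DMSO area)]*50 uM.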
The target of series [2] is T1, full-length beta-Catenin (Uniprot ID P35222) (Homo sapiens, UniProt P35222).
T1 construct: 10 nM full-length beta-Catenin (Uniprot ID P35222)
T1 sequence (P35222 1-781): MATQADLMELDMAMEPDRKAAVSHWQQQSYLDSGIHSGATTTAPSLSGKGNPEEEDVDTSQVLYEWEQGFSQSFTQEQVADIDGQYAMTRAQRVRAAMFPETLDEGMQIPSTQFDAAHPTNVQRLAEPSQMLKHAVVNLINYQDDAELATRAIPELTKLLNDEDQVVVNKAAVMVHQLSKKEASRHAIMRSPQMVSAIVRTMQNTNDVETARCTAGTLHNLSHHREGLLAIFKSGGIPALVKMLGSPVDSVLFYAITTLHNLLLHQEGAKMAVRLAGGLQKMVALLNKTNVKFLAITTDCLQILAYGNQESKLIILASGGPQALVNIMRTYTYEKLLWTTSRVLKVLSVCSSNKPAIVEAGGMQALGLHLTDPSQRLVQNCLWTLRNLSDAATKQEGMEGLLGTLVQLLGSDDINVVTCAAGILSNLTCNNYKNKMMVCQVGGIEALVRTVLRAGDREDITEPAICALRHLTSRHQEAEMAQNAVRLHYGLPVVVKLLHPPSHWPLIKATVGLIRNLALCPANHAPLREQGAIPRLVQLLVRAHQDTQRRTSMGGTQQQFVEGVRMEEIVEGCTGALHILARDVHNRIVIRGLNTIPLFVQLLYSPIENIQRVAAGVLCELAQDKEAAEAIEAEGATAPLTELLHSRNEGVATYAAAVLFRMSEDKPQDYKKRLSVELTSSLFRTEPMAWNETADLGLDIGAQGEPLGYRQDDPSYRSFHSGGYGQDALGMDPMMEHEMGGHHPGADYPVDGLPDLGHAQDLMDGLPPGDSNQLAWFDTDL
Nature of the series: Fluorescence polarization IC50 (beta-catenin / 5FAM-TCF4 10-53 competition). Type of series: binding. A general note: Fluorescence polarisation rises when a labelled molecule tumbles more slowly, as on binding a larger partner.

[3] abbreviates: fluorescence polarization, read-out: beta-Catenin FP IC50.
The mark [4] stands for this setting: fluorescence polarization, beta-catenin, read-out: FP EC50.

Molecule `CC(=O)N1CCC[C@]12CC=CCCCC1(CCCC=CCCCOC(=O)N3CC[C@@](C(=O)N[C@@H](Cc4ccccc4Cl)C(=O)N[C@@H](Cc4csc5ccccc45)C(=O)N[C@@H](CO)C(N)=O)(C3)NC(=O)[C@H]([C@@H](C)O)NC(=O)[C@H](Cc3ccccc3)NC(=O)[C@H](C)NC(=O)[C@H](CC(C)C)NC(=O)[C@H](CC(=O)O)NC(=O)[C@H](CC(=O)O)NC1=O)NC(=O)[C@H](Cc1ccccc1)NC(=O)[C@H](CC(=O)O)NC2=O` (stereo partly drawn) [I-1156, Ac-PL3-Asp-Phe-B5-Asp-Asp-Leu-Ala-Phe-Thr-PyrS2-2C1F-BztA-Ser-NH2] showed a Solubility in series [1] (Solubility (uM)) of 48 µM (≈ 93.8 µg/mL). Further, in series [2] (setting [3]), the IC50 came out at 14 nM.

In turn, `CC(=O)N1CCC[C@]12CC=CCCCC1(CCCC=CCCCOC(=O)N3CC[C@@](C(=O)N[C@@H](Cc4ccccc4Cl)C(=O)N[C@@H](Cc4csc5ccccc45)C(=O)N[C@@H](CO)C(N)=O)(C3)NC(=O)[C@H]([C@@H](C)O)NC(=O)[C@H](Cc3ccccc3)NC(=O)[C@H](CC(C)C)NC(=O)[C@H](CC(C)C)NC(=O)[C@H](CC(=O)O)NC(=O)[C@H](CC(=O)O)NC1=O)NC(=O)[C@H](Cc1ccccc1)NC(=O)[C@H](CC(=O)O)NC2=O` (stereo partly drawn) [I-1158, Ac-PL3-Asp-Phe-B5-Asp-Asp-Leu-Leu-Phe-Thr-PyrS2-2C1F-BztA-Ser-NH2] showed a Solubility in series [1] of 29 µM (≈ 57.9 µg/mL). The IC50 in series [2] (beta-Catenin FP IC50, fluorescence polarization) was determined as 168 nM.

As for `CC(=O)N1CCC[C@]12CC=CCCCC1(CCCC=CCCCOC(=O)N3CC[C@@](C(=O)N[C@@H](Cc4ccccc4Cl)C(=O)N[C@@H](Cc4csc5ccccc45)C(=O)N[C@@H](CCC(N)=O)C(N)=O)(C3)NC(=O)[C@H](CC(C)C)NC(=O)[C@H](Cc3ccccc3)NC(=O)[C@H](C)NC(=O)[C@H](C)NC(=O)[C@H]([C@@H](C)O)NC(=O)[C@H](CC(=O)O)NC1=O)NC(=O)[C@H](CC(C)(C)C)NC(=O)[C@H](CC(=O)O)NC2=O` (stereo partly drawn) [I-1169, Ac-PL3-Asp-Npg-B5-Asp-Thr-Ala-Ala-Phe-Leu-PyrS2-2C1F-BztA-Gln-NH2], in series [1], the “Solubility” value amounted to 10 µM (≈ 19.3 µg/mL). Further, the IC50 in series [2] (setting [3]) came to 159 nM.

Consider `CC(=O)N1CCC[C@]12CC=CCCCC1(CCCC=CCCCOC(=O)N3CC[C@@](C(=O)N[C@@H](Cc4ccsc4)C(=O)N[C@@H](Cc4csc5ccccc45)C(=O)N[C@@H](CCC(N)=O)C(N)=O)(C3)NC(=O)[C@H](CC(C)C)NC(=O)[C@H](Cc3ccccc3)NC(=O)[C@H](C)NC(=O)[C@H](C)NC(=O)[C@H]([C@@H](C)O)NC(=O)[C@H](CC(=O)O)NC1=O)NC(=O)[C@H](CC1CCCCC1)NC(=O)[C@H](CC(=O)O)NC2=O` (stereo partly drawn) [I-1174, Ac-PL3-Asp-Cha-B5-Asp-Thr-Ala-Ala-Phe-Leu-PyrS2-3Thi-BztA-Gln-NH2], for which, in series [1], the “Solubility” value is 10 µM (≈ 19.3 µg/mL). The IC50 in series [2] (setting [3]) is 43 nM.

For `CC(=O)N1CCC[C@]12CC=CCCCC1(CCCC=CCCCOC(=O)N3CC[C@@](C(=O)N[C@@H](Cc4ccccc4Cl)C(=O)N[C@@H](Cc4csc5ccccc45)C(=O)N[C@@H](CCC(N)=O)C(N)=O)(C3)NC(=O)[C@H](CC(C)C)NC(=O)[C@H](Cc3ccccc3)NC(=O)[C@H](C)NC(=O)[C@H](C)NC(=O)[C@H]([C@@H](C)O)NC(=O)[C@H](CC(=O)O)NC1=O)NC(=O)[C@H](CC1CCCCC1)NC(=O)[C@H](CC(=O)O)NC2=O` (stereo partly drawn) [I-1176, Ac-PL3-Asp-Cha-B5-Asp-Thr-Ala-Ala-Phe-Leu-PyrS2-2C1F-BztA-Gln-NH2], in series [1], the “Solubility” value was 10 µM (≈ 19.6 µg/mL). In addition, the IC50 in series [2] (setting [3]) was found to be 169 nM.

As for `CC(=O)N1CCC[C@]12CC=CCCCC1(CCCC=CCCCOC(=O)N3CC[C@@](C(=O)N[C@@H](Cc4ccsc4)C(=O)N[C@@H](Cc4csc5ccccc45)C(=O)N[C@@H](CCC(N)=O)C(N)=O)(C3)NC(=O)[C@H](CC(C)C)NC(=O)[C@H](Cc3ccccc3)NC(=O)C(C)(C)NC(=O)C(C)(C)NC(=O)[C@H](CC(=O)O)NC(=O)[C@H](CC(=O)O)NC1=O)NC(=O)[C@H](CC(C)(C)C)NC(=O)[C@H](CC(=O)O)NC2=O` (stereo partly drawn) [I-1179, Ac-PL3-Asp-Npg-B5-Asp-Asp-Aib-Aib-Phe-Leu-PyrS2-3Thi-BztA-Gln-NH2], the “Solubility” value in series [1] was found to be 44 µM (≈ 85.6 µg/mL). For the same molecule, the IC50 in series [2] (setting [4]) and in series [2] (setting [3]) was 346 nM each time.

As for `CC(=O)N1CCC[C@]12CC=CCCCC1(CCCC=CCCCOC(=O)N3CC[C@@](C(=O)N[C@@H](Cc4ccsc4)C(=O)N[C@@H](Cc4csc5ccccc45)C(=O)N[C@@H](CCC(N)=O)C(N)=O)(C3)NC(=O)[C@H](CC(C)C)NC(=O)[C@H](Cc3ccccc3)NC(=O)C(C)(C)NC(=O)C(C)(C)NC(=O)[C@H](CC(=O)O)NC(=O)[C@H](CC(=O)O)NC1=O)NC(=O)[C@H](CC(C)(C)C)NC(=O)[C@H](CC(=O)O)NC2=O` (stereo partly drawn) [I-1180, Ac-PL3-Asp-Npg-B5-Asp-Asp-Aib-Aib-Phe-Leu-PyrS2-3Thi-BztA-Gln-NH2], the “Solubility” value in series [1] turned out to be 31 µM (≈ 60.3 µg/mL). The IC50 in series [2] (setting [4]) and in series [2] (setting [3]) was 87 nM throughout.

Molecule `CC(=O)N1CCC[C@H]1C(=O)N[C@@H](CC(=O)O)C(=O)N[C@@H](CC(C)(C)C)C(=O)N[C@]1(C)CCCC=CCCCOC(=O)N2CC[C@@](C(=O)N[C@@H](Cc3ccsc3)C(=O)N[C@@H](Cc3csc4ccccc34)C(=O)N[C@@H](CCC(N)=O)C(N)=O)(C2)NC(=O)[C@H](CC(N)=O)NC(=O)[C@H](Cc2ccccc2)NC(=O)[C@H](C)NC(=O)[C@H](C)NC(=O)[C@H](CC(=O)O)NC(=O)[C@H](CC(=O)O)NC1=O` [I-1182, Ac-Pro-Asp-Npg-R5-Asp-Asp-Ala-Ala-Phe-Asn-PyrS2-3Thi-BztA-Gln-NH2] showed a Solubility in series [1] (Solubility (uM)) of 48 µM (≈ 88.9 µg/mL). In addition, the IC50 in series [2] (setting [3]) is 144 nM.

In the case of `CC(=O)N1CCC[C@H]1C(=O)N[C@@H](CC(=O)O)C(=O)N[C@@H](CC(C)(C)C)C(=O)N[C@]1(C)CCCC=CCCCOC(=O)N2CC[C@@](C(=O)N[C@@H](Cc3ccccc3Cl)C(=O)N[C@@H](Cc3csc4ccccc34)C(=O)N[C@@H](CCC(N)=O)C(N)=O)(C2)NC(=O)[C@H](CC(N)=O)NC(=O)[C@H](Cc2ccccc2)NC(=O)[C@H](C)NC(=O)[C@H](C)NC(=O)[C@H](CC(=O)O)NC(=O)[C@H](CC(=O)O)NC1=O` [I-1183, Ac-Pro-Asp-Npg-R5-Asp-Asp-Ala-Ala-Phe-Asn-PyrS2-2C1F-BztA-Gln-NH2], the “Solubility” value in series [1] is 50 µM (≈ 94 µg/mL). Further, in series [2] (setting [3]), the IC50 came to 409 nM.

`CC(=O)N1CCC[C@H]1C(=O)N[C@@H](CC(=O)O)C(=O)N[C@@H](CC1CCCCC1)C(=O)N[C@]1(C)CCCC=CCCCOC(=O)N2CC[C@@](C(=O)N[C@@H](Cc3ccccc3Cl)C(=O)N[C@@H](Cc3csc4ccccc34)C(=O)N[C@@H](CO)C(N)=O)(C2)NC(=O)[C@H]([C@@H](C)O)NC(=O)[C@H](Cc2ccccc2)NC(=O)[C@H](C)NC(=O)[C@H](C)NC(=O)[C@H](CC(=O)O)NC(=O)[C@H](CC(=O)O)NC1=O` [I-1184, Ac-Pro-Asp-Cha-R5-Asp-Asp-Ala-Ala-Phe-Thr-PyrS2-2C1F-BztA-Ser-NH2] displayed a Solubility in series [1] (Solubility (uM)) of 45 µM (≈ 83.4 µg/mL). In addition, the IC50 in series [2] (setting [3]) stood at 176 nM.

As to `CC(=O)N1CCC[C@]12CC=CCCCC1(CCCC=CCCCCCC[C@@](C)(C(=O)N[C@@H](Cc3ccccc3Cl)C(=O)N[C@@H](Cc3csc4ccccc34)C(=O)N[C@@H](CO)C(N)=O)NC(=O)[C@H](CC(C)C)NC(=O)[C@H](Cc3ccccc3)NC(=O)[C@H](C)NC(=O)[C@H](C)NC(=O)[C@H](CC(=O)O)NC(=O)[C@H](CC(=O)O)NC1=O)NC(=O)[C@H](CC(C)(C)C)NC(=O)[C@H](CC(=O)O)NC2=O` (stereo partly drawn) [I-1189, Ac-PL3-Asp-Npg-B5-Asp-Asp-Ala-Ala-Phe-Leu-S8-2C1F-BztA-Ser-NH2], the “Solubility” value in series [1] is 10 µM (≈ 18.6 µg/mL). Besides, the IC50 in series [2] (setting [3]) was determined as 94.5 nM.

As a reminder, the Solubility is the concentration that dissolves in the medium under given conditions. Read a low Solubility as a poorly soluble substance.
